For assay [1], the system named is Klebsiella pneumonia (13,883). Nature of the assay: Broth microdilution, K. pneumoniae. The class given is cell-based. (In broth dilution the organism is exposed to a series of concentrations in liquid medium.)
Text: (§1) The microdilution method was used to assess the antimicrobial activity of the PGEO against selected bacterial and fungal strains according to the method [49].
The test system of assay [2] is methicillin-resistant S. aureus (MRSA). Put plainly: Broth microdilution, MRSA. It counts as cell-based. As to conditions: Staphylococcus aureus, clinical strain.
Text: as §1
In assay [3] the test system is Staphylococcus aureus (2592). Nature of the assay: Broth microdilution, S. aureus. It counts as cell-based.
Text: as §1
For assay [4], the system named is Pseudomonas aeruginosa (9027). Nature of the assay: Broth microdilution, P. aeruginosa. The class given is cell-based.
Text: as §1
The subject of assay [5] is Proteus vulgaris (8427). Nature of the assay: Broth microdilution, P. vulgaris. It counts as cell-based.
Text: as §1
The subject of assay [6] is Escherichia coli (25,922). Put plainly: Broth microdilution, E. coli. The class given is cell-based.
Text: as §1
Assay [7] has as its system E. coli. Details: method as in PMID 26221178. The conditions noted are these: cited from earlier work.
The test system of assay [8] is S. aureus species. Details: method as in PMID 31284397. The conditions noted are these: cited from earlier work.
Assay [9] deals with S. aureus. Details: method as in PMID 26221178. The conditions noted are these: cited from earlier work.
The target of assay [10] is lipase. The arrangement: method as in earlier work. As to conditions: PGEO from Jordan; cited from earlier work.
Assay [11] concerns Candida albicans (ATCC 90028). Nature of the assay: Broth microdilution, C. albicans. It counts as cell-based. The conditions noted are these: ATCC90028.
Text: as §1
In assay [12] the test system is Hep3B. Put plainly: cells. It counts as cell-based. The conditions noted are these: Homo sapiens, 24 h, MTS. The protocol:
Human cervical (HeLa), breast (MCF-7), and liver (Hep3B) cancer cell lines were cultured in RPMI-1640 medium (Sigma-Norwich, Norfolk, UK). Then each kind of the tested cells was treated with 10% fetal bovine serum mixed with 1% penicillin/streptomycin antibiotics (BI, Ghaziabad, UP, India), and 1% L-glutamine (Sigma-Norwich, Norfolk, UK). The cancer cells were cultured at 37 °C in a humidified atmosphere with 5% CO2 and then planted in a 96-well plate at 2.6 × 10^4 cells/well. After 2 days, the EO with different concentrations (10, 30, 60, 120, and 500 µg/mL) was applied to the cells for 24 h. According to the manufacturer’s guidelines, cell viability was estimated by the CellTilter 96® Aqueous One Solution Cell Proliferation (MTS) method. In the end, 100 μL of media and 20 μL of MTS solution were added to each well, and the well plates were incubated at 37 °C for 2 h. The absorbance was measured at 490 nm.

Assay [13] is described as follows: DPPH free radical scavenging activity. The conditions noted are these: anti-DPPH radical activity, 30 min, 517 nm. The protocol: Spectrophotometry at 517 nm was used to measure the absorbance, which was then compared with the control. The DPPH suppressant effect was calculated using the formula below: […]
For orientation: Loss of DPPH colour is used to gauge radical scavenging.

In brackets after ≈: the same amount, converted by molar mass. Marks after values point to notes of the source that are not given here.

As usually defined, the MIC is the smallest concentration in the dilution series that meets the test's criterion for growth inhibition. Read a high MIC as a need for much substance. What is called IC50 is the concentration that gives 50% inhibition.

As to `CC1(C)S[C@@H]2[C@H](NC(=O)[C@H](N)c3ccccc3)C(=O)N2[C@H]1C(=O)O` [Ampicillin], the MIC in assay [1] is 12.5 ± 0.05 µg/mL (≈ 35.8 µM); in assay [2], 32 ± 0.64 µg/mL (≈ 91.6 µM); in assay [3] it was 6.25 ± 0.2 µg/mL (≈ 17.9 µM); in assay [4], 100 ± 1.01 µg/mL (≈ 286 µM); in assay [5] it was 3.25 ± 0.21 µg/mL (≈ 9.3 µM); in assay [6] it was 3.12 ± 0.56 µg/mL (≈ 8.93 µM).

As to `CC(C)=CCCC(C)CCO` (stereo not drawn) [citronellol], in assay [7], the “MIC E. coli” value is 300 µg/mL (≈ 1920 µM). Besides, the “MIC S. aureus” value was 30 µg/mL (≈ 192 µM) in assay [8] and 400 µg/mL (≈ 2560 µM) in assay [9].

For `CCCCCCCCCCC[C@@H](C[C@@H]1OC(=O)[C@H]1CCCCCC)OC(=O)[C@H](CC(C)C)NC=O` [Orlistat], the “anti-lipase IC50” value in assay [10] was 0.114 ± 0.0 µg/mL.

On to `OC(Cn1cncn1)(Cn1cncn1)c1ccc(F)cc1F` [Fluconazole], for which the MIC in assay [11] is 3.12 ± 0.01 µg/mL (≈ 10.2 µM).

On to `O=C(O)c1cn(C2CC2)c2cc(N3CCNCC3)c(F)cc2c1=O` [Ciprofloxacin], for which the MIC in assay [1] and in assay [5] was 0.06 ± 0.001 µg/mL (≈ 0.181 µM) each time.

The compound `COc1cccc2c1C(=O)c1c(O)c3c(c(O)c1C2=O)C[C@@](O)(C(=O)CO)C[C@@H]3O[C@H]1C[C@H](N)[C@H](O)[C@H](C)O1` [Doxorubicin] registered an IC50 in [12] of 1.21 ± 1 µg/mL (≈ 2.23 µM).

Take `Cc1c(C)c2c(c(C)c1O)CCC(C)(C(=O)O)O2` (stereo not drawn) [Trolox]: the “IC50 against DPPH” value in [13] was 1.88 ± 0.45 ^a µg/mL.

(Values after article PMC9457828, “Chemical Markers and Pharmacological Characters of Pelargonium graveolens Essential Oil from Palestine” (Molecules, 2022).)
